Experimental findings from PMC7486443, “Generation of Phenothiazine with Potent Anti-TLK1 Activity for Prostate Cancer Therapy” (iScience, 2020) are described below.

What all share (assay): biochemical
Holding throughout (parameters): DiscoverX KINOMEscan scanMAX competition binding panel, single concentration, percent of control; remaining binding: dose or concentration left out as unconfirmed
Holding throughout (settings): KINOMEscan binding, percent of control; read-out: Table S4_SCANMAX REPORT - related to Fig. 1 / Percent Control

For experiment [1], the target named is T1, TRKC (Homo sapiens, UniProt Q16288).
T1 construct: gene NTRK3

Experiment [2] addresses MAP4K5 (Homo sapiens, UniProt Q9Y4K4).
Experiment [3] addresses T2, ERK2 (Homo sapiens, UniProt P28482).
T2 construct: gene MAPK1

Experiment [4] has as its target T3, ADCK3 (Homo sapiens, UniProt Q8NI60).
T3 construct: gene COQ8A

Experiment [5] deals with T4, ABL1(T315I)-phosphorylated (Homo sapiens, UniProt P00519, T315I).
T4 construct: phosphorylated

For experiment [6], the target named is T5, ABL1(Y253F)-phosphorylated (Homo sapiens, UniProt P00519, Y253F).
T5 construct: phosphorylated

The target in experiment [7] is ERBB2 (Homo sapiens, UniProt P04626).
For experiment [8], the target named is EPHA7 (Homo sapiens, UniProt Q15375).
For experiment [9], the target named is EGFR(T790M) (Homo sapiens, UniProt P00533, T790M).
Chain of EGFR(T790M) (P00533 whole entry T790M): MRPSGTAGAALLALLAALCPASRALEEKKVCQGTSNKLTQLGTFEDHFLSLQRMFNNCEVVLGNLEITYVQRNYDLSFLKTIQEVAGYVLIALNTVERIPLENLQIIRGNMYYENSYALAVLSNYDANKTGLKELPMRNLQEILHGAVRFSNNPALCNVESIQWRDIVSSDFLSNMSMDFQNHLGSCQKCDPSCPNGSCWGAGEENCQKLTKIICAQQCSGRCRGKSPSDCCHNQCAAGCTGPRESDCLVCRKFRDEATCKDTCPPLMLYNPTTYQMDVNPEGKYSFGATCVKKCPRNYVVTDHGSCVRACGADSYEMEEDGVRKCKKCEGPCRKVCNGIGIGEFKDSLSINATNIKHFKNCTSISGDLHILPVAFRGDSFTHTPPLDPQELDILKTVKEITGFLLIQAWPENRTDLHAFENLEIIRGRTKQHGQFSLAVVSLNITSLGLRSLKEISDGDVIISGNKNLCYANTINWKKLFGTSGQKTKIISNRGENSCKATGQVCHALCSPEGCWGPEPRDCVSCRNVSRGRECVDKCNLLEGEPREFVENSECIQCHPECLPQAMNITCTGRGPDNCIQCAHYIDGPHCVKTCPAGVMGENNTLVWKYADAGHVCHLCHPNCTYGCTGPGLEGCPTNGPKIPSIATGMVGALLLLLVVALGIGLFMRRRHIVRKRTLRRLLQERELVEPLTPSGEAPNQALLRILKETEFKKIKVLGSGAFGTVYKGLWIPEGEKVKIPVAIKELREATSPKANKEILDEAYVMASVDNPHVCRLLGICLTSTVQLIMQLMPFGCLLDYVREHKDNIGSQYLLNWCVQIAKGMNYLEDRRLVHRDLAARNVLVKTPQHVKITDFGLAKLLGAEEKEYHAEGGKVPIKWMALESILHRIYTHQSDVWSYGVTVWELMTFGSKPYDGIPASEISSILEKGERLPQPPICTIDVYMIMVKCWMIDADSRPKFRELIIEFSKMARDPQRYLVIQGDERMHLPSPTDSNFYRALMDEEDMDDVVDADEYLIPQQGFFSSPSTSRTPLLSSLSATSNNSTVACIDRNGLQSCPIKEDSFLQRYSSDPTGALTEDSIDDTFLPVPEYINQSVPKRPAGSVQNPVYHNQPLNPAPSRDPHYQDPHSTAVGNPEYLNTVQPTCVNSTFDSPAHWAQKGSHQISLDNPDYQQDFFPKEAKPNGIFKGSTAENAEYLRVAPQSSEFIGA
The target in experiment [10] is EGFR(L747-E749del, A750P) (Homo sapiens, UniProt P00533, A750P/DEL747-749).
Chain of EGFR(L747-E749del, A750P) (P00533 with tags, fused parts or gaps DEL747-749/A750P): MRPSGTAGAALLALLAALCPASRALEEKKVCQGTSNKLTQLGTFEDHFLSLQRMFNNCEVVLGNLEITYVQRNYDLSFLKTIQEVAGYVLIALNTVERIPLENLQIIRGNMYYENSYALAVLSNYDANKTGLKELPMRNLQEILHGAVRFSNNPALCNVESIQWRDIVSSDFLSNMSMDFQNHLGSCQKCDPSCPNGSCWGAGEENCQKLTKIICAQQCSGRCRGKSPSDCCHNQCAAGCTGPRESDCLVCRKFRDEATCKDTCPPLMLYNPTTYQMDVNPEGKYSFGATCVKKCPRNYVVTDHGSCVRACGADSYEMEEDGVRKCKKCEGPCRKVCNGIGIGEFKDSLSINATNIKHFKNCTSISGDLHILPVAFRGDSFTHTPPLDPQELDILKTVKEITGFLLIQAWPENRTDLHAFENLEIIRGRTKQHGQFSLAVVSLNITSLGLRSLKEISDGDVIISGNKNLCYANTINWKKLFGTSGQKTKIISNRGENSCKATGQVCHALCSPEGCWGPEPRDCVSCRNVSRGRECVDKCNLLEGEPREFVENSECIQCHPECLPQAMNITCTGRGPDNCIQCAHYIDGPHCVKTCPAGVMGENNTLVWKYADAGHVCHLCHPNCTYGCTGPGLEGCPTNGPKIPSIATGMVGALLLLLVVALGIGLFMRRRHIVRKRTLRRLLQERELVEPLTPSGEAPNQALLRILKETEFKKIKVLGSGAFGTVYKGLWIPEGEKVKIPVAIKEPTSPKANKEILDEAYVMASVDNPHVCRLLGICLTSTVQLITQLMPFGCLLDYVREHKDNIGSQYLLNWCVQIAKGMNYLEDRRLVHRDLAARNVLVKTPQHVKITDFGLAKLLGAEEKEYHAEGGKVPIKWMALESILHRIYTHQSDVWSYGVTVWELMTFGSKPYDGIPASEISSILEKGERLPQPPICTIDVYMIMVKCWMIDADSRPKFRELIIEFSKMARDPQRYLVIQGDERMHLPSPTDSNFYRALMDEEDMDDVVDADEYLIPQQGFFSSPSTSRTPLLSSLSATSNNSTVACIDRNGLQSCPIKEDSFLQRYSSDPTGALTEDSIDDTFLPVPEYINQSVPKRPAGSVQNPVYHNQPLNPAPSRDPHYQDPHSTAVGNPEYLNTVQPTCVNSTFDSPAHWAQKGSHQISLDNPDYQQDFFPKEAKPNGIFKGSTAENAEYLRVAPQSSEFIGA
For experiment [11], the target named is BRSK1 (Homo sapiens, UniProt Q8TDC3).
In experiment [12] the target is PDGFRA (Homo sapiens, UniProt P16234).
Chain of PDGFRA (P16234 whole entry): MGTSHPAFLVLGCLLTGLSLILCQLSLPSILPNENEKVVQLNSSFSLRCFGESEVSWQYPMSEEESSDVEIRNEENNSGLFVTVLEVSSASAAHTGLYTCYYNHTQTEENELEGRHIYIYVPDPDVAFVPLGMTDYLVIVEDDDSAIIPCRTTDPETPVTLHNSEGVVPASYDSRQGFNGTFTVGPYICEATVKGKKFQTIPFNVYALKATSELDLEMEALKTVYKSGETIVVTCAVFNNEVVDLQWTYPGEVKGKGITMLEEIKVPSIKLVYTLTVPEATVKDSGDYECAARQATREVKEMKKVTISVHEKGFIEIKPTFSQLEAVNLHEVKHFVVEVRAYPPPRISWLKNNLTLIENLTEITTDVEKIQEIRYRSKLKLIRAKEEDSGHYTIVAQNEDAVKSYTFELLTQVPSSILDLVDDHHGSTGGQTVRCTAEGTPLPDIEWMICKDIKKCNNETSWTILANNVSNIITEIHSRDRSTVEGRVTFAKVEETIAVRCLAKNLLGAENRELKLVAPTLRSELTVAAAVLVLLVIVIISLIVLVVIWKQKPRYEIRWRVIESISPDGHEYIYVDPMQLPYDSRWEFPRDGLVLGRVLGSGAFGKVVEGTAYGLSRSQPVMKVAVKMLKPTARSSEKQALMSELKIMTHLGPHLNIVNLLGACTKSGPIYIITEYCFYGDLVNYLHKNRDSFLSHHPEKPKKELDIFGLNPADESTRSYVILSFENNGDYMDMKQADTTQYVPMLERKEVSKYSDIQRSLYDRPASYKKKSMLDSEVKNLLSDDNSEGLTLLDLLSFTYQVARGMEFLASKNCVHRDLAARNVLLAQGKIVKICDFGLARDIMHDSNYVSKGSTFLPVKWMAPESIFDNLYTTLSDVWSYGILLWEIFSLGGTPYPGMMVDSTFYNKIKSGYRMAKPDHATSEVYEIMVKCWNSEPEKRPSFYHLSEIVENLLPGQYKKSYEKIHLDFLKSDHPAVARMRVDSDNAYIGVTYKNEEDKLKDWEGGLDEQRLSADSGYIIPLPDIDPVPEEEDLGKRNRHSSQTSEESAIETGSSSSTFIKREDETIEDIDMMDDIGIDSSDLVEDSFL
Experiment [13] has as its target SRPK1 (Homo sapiens, UniProt Q96SB4).
Experiment [14] deals with IGF1R (Homo sapiens, UniProt P08069).
Experiment [15] has as its target PAK1 (Homo sapiens, UniProt Q13153).
The target in experiment [16] is NEK7 (Homo sapiens, UniProt Q8TDX7).
Experiment [17] deals with CSNK2A2 (Homo sapiens, UniProt P19784).
Experiment [18] deals with LCK (Homo sapiens, UniProt P06239).
Chain of LCK (P06239 whole entry): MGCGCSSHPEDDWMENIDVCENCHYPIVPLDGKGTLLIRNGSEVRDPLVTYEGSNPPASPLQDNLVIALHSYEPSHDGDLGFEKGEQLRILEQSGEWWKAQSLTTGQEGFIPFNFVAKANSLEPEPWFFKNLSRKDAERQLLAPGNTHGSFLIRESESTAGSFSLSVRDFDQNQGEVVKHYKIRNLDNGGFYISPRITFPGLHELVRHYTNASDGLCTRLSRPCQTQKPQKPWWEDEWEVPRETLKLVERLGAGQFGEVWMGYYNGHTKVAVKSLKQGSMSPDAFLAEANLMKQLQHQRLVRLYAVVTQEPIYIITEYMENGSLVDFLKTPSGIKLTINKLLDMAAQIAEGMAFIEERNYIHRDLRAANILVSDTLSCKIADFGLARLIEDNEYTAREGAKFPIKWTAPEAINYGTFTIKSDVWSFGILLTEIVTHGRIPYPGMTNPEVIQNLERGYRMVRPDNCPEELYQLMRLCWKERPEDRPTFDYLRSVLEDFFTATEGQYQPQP

T2 sequence (P28482 whole entry): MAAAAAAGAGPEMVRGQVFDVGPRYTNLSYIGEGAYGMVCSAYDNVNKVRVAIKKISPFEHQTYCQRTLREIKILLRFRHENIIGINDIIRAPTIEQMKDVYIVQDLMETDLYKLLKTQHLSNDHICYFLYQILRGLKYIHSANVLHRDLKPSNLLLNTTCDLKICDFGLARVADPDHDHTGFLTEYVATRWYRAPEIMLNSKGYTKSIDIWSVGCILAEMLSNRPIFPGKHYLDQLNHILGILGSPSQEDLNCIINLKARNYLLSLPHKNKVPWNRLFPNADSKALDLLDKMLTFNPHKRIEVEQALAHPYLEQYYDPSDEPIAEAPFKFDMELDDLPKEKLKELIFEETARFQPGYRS
Chain of PAK1 (Q13153 whole entry): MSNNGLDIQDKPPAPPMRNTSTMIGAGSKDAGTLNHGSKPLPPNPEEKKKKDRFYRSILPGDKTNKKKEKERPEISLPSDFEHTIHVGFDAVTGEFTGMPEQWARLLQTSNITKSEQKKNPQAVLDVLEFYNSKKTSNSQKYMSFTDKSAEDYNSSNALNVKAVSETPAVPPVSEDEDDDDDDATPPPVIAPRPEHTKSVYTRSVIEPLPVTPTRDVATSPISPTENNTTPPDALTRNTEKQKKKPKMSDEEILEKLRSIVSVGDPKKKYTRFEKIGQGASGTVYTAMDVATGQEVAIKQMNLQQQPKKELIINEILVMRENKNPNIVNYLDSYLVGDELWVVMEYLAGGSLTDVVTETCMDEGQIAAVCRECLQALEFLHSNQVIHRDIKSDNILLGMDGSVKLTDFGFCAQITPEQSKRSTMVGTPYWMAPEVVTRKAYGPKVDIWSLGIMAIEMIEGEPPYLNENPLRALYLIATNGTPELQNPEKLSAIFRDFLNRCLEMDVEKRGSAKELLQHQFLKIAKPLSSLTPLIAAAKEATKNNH

As to `c1ccc2c(c1)Sc1ccccc1N2CCN1CCOCC1` [J54], the remaining binding in [1] was 81%; in experiment [2], 68%; in experiment [3], 97%; in experiment [4] it was 100%; in [5] it was 93%; in experiment [6] it was 79%. Moreover, the remaining binding amounted to 100% in experiment [7]; 100% in experiment [8]; 96% in experiment [9]; 90% in [10]; 100% in experiment [11]; 100% in experiment [12]. The remaining binding in [13] was determined as 100%; in [14], 56%; in [15] it was 93%; in experiment [16], 100%; in experiment [17], 77%; in [18], 100%.
